Source: ChEMBL document CHEMBL1155780, “Lack of aquaporin-4 water transport inhibition by antiepileptics and arylsulfonamides” (Bioorg Med Chem, 2008)

Biological target: Aquaporin-4 (Homo sapiens) (UniProt P55087)
Details: FRT
Description: Inhibition of AQP4 expressed in rat FRT cells assessed as osmotic water permeability at 100 uM after 15 mins by stopped-flow light scattering method

Sequence of Aquaporin-4 (Homo sapiens) (P55087 whole entry): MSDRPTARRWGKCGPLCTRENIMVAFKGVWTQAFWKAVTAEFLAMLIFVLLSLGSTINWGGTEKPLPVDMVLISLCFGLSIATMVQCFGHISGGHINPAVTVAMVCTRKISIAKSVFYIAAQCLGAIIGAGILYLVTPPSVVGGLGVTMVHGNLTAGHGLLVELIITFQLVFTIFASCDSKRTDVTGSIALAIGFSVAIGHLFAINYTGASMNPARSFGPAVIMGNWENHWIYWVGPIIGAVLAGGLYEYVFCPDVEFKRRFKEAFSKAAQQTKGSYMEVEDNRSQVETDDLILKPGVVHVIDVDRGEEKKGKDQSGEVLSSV

| SMILES | permeability [×10⁻⁶ cm/s] |
| --- | --- |
| CCOc1ccc2nc(S(N)(=O)=O)sc2c1 | 12900 |
| CC(=O)Nc1nnc(S(N)(=O)=O)s1 | 12900 |
| CC1(C)O[C@@H]2[C@@H](CO[C@@]3(COS(N)(=O)=O)OC(C)(C)O[C@@H]23)O1 | 12900 |
| CNS(=O)(=O)Cc1ccc2[nH]cc(CCN(C)C)c2c1 | 12900 |
| CC(=O)Nc1ccc(S(N)(=O)=O)cc1 | 12900 |
| NS(=O)(=O)Cc1noc2ccccc12 | 12900 |
| O=C1NC(=O)C(c2ccccc2)(c2ccccc2)N1 | 12900 |
